Laboratory results: PMC8753592, “Long-acting capsid inhibitor protects macaques from repeat SHIV challenges” (Nature, 2021)
Several values for one entry are separate records, joined by “and”; a condition that tells them apart may be missing. Equal values may be shown once. Read-outs that look alike come from different tables or passages of the source.

Columns and labels:
SHIV-SF162P3 = experiment: microbe, parasite or virus in culture; type: cell-based, SHIV (in rhesus macaque, Macaca mulatta, PBMCs); conditions: for % Virus Production, replicates n1–n3: experiments 1–7; for % Virus Production, MEAN: per experiment 1–7
Description: Freshly isolated PBMCs from three male rhesus macaque (M. mulatta) donors of Indian origin (HumanCells Biosciences) were cultured in RPMI-1640 cell culture medium (Life Technologies) supplemented with 10% heat-inactivated FBS (Hyclone), 2 mM glutamine and 100 U ml^−1 penicillin plus 100 μg ml^−1 streptomycin (complete RPMI). Before their use in the antiviral assays, rhesus PBMCs from three independent donors were pooled and activated at a density of 3 × 10^6 cells per ml for 72 h at 37 °C by the addition of 1 μg ml^–1 phytohemagglutinin (PHA, Sigma-Aldrich) and 50 U ml^−1 recombinant human interleukin-2 (IL-2) (Roche Diagnostics).
PHA/IL-2-stimulated rhesus PBMCs were infected in bulk culture with SHIV-SF162P3 at a concentration of 130 pg of p27 equivalent per million PBMCs. The cells were maintained in suspension by gently rocking the cultures mixed with virus inoculum for 3 h at 37 °C. The cells were then pelleted by centrifugation at 500g for 5 min, washed twice with complete RPMI to remove any unadsorbed virus and seeded into 96-well plates at a cell density of 2 × 10^5 cells per well in 100 μl. […] The cultures were incubated in a 5% CO2 incubator at 37 °C for 7 days. Cell-free supernatants derived from the PBMC cultures were harvested 7 days after infection, the amount of SHIV present was quantified using an SIV p27 antigen-capture ELISA assay (5436, Advanced Bioscience Laboratories) performed according to the manufacturer’s protocol, and the data were acquired using SoftMax Pro 6.3.1 software (Molecular Devices).

[1] = Metabolic stability of [3H]GS-CA1 in primary rhesus hepatocytes; type: in vitro ADME
Description: Propranolol (1 μM final), a compound known to be efficiently metabolized by hepatocytes by oxidation and conjugation, was used as a positive control. A cell-free control was incubated in parallel as a negative control. Aliquots (100 μl) were removed after 0 h, 1 h, 3 h and 6 h and were then mixed with 200 μl quenching solution, placed on a shaker for 10 min and centrifuged at 3,000g for 60 min. The supernatant was transferred to a new plate, diluted with 100 μl water and placed on a shaker for 10 min. […] PerkinElmer Ultima-Flo was used as the scintillation cocktail, which was mixed with the HPLC effluent at a ratio of 1:1. Sample (100 μl) was injected using a Leap Technologies CTC PAL autosampler. Separation was achieved on a Phenomenex Synergi Fusion-RP 80-Å pore size, 4-μm particle size, 150 × 4.6-mm column maintained at 32 °C. Mobile phase A consisted of 95% water, 5% acetonitrile and 0.1% trifluoroacetic acid (TFA). Mobile phase B consisted of 95% acetonitrile, 5% water and 0.1% TFA. […] The column was allowed to re-equilibrate for 12 min between injections. Quantification was based on the radiochromatographic peak area using Dionex (Thermo Scientific) Chromeleon 6.8 software.

[2] = molecular target: CA precursor (Gag polyprotein); conditions: ref Yant et al, Nat.Med, 2019;[4]; read-out: Binding Affinity (KD), CA precursor (Gag polyprotein); cited from earlier work
HIV-1 isolates = conditions: ref Yant et al, Nat.Med, 2019;[4]; read-out: EC50, human PBMCs, HIV-1 isolates; cited from earlier work

## CC(C)(C#Cc1ccc(-c2ccc(Cl)c3c(NS(=O)(=O)C4CC4)nn(CC(F)F)c23)c([C@H](Cc2cc(F)cc(F)c2)NC(=O)Cn2nc(C(F)F)c3c2C(F)(F)[C@@H]2C[C@H]32)n1)S(C)(=O)=O [GS-CA1]
SHIV-SF162P3; 0.011 nM
  % Virus Production, replicates n1–n3: 122% and 104% and 99% and 93% and 127% and 160% and 82% and 121% and 88% and 87% and 68%
  % Virus Production, MEAN: 108% and 126% and 97% and 83% and 121% and 68%
SHIV-SF162P3; 0.034 nM
  % Virus Production, replicates n1–n3: 106% and 78% and 72% and 136% and 114% and 75% and 116% and 105% and 181% and 64% and 89% and 82% and 53% and 93%
SHIV-SF162P3; 0.103 nM
  % Virus Production, replicates n1–n3: 127% and 124% and 79% and 73% and 103% and 118% and 130% and 152% and 105% and 82% and 99% and 121% and 76% and 71%
  % Virus Production, MEAN: 110% and 85% and 133% and 95% and 89% and 99% and 67%
SHIV-SF162P3; 0.309 nM
  % Virus Production, replicates n1–n3: 75% and 74% and 102% and 149% and 120% and 72% and 78% and 94% and 103% and 109% and 66%
SHIV-SF162P3; 0.926 nM
  % Virus Production, replicates n1–n3: 65% and 37% and 36% and 39% and 31% and 20% and 16% and 18% and 23% and 70% and 14% and 22%
SHIV-SF162P3; 2.778 nM
  % Virus Production, replicates n1–n3: 0.408% and 2% and 2.34% and 1.77% and 1.55% and 0.489% and 2.2% and 1.37% and 0.76% and 0.799%
  % Virus Production, MEAN: 1.61% and 1.79% and 1.35% and 1.16% and 2.6% and 1.28% and 0.0528%
SHIV-SF162P3; 8.333 nM
  % Virus Production, replicates n1–n3: 1.76% and 1% and 0.517% and 0.425% and 0.705% and 0.145% and 0.0164% and 0.262% and 1.4% and 0.22% and 0.682% and 0.142%
  % Virus Production, MEAN: 1.08% and 0.425% and 0.559% and 0.348% and 1.87% and 0.078% and 0.398%
SHIV-SF162P3; 25.000 nM
  % Virus Production, replicates n1–n3: -0.0465% and -0.0193% and 0.798% and -0.276% and 0.164% and 0.276% and 1% and 0.434% and -0.106% and 0.12% and 0.292% and 0.064% and 0.0863%
  % Virus Production, MEAN: 0.244% and 0.0545% and 0.436% and 0.159% and -0.387% and 0.675% and 0.293%
SHIV-SF162P3; EC95 × rhesus plasma shift
  Rhesus PBMC paEC95: 30.2 nM and 30.2 ± 2.5 nM and 30 nM
SHIV-SF162P3; Simian immunodeficiency virus, PBMC, in Macaca mulatta, 168 h, read-out: EC50, rhesus PBMCs, SHIV-SF162P3, mean of 7 assays, SIV p27 ELISA day 7 post-infection
  EC50: 0.72 nM
SHIV-SF162P3; Simian immunodeficiency virus, PBMC, in Macaca mulatta, 168 h, read-out: SHIV162P3-rhPBMC-EC50, individual experiments, single experiments n1–n7, SIV p27 ELISA day 7
  EC50: 0.66 nM
SHIV-SF162P3; calculated from SHIV EC50 and Hill slope: EC50 × (95/5)^1/n
  Rhesus PBMC EC95: 1.91 nM and 1.91 ± 0.16 nM and 1.9 nM
SHIV-SF162P3; read-out: SHIV162P3-rhPBMC-EC50, individual experiments, single experiments n1–n7, SIV p27 ELISA day 7
  EC50: 0.71 nM and 0.777 nM and 0.868 nM and 0.535 nM and 0.74 nM (2×) and 0.661 nM and 0.78 nM and 0.714 nM and 0.87 nM and 0.54 nM
[1]
  hepatic extraction: 2.9%
[1]; 3H-labelled GS-CA1
  predicted rate of hepatic clearance: 1.2 mL/min/kg
[2]
  Kd: 2.4 nM
HIV-1 isolates
  EC50: 0.13 nM
